Data as given in patent publication US20240245677A1, “SELECTED COMPOUNDS FOR TARGETED DEGRADATION OF BRD9” (C4 THERAPEUTICS, INC., priority 2021, published 2024).

Columns and labels:
BRD9 = target: T1, BRD9 (Homo sapiens, UniProt Q9H8M2); assay: BRD9 HiBiT degradation assay in 293T.166 (HEK293T.166) cells; format: cell-based; design: endogenously expressing BRD9 with HiBiT fusion tag via CRISPR; host or cells: HEK293T.166 (293T.166, BRD9-HiBiT HEK293, LgBiT by lentivirus); settings: for DC50: 2.0 hours, read-out: HiBiT-Degradation 293T.166 BRD9 2.0 hours (DC50)
T1 sequence (Q9H8M2 1-597): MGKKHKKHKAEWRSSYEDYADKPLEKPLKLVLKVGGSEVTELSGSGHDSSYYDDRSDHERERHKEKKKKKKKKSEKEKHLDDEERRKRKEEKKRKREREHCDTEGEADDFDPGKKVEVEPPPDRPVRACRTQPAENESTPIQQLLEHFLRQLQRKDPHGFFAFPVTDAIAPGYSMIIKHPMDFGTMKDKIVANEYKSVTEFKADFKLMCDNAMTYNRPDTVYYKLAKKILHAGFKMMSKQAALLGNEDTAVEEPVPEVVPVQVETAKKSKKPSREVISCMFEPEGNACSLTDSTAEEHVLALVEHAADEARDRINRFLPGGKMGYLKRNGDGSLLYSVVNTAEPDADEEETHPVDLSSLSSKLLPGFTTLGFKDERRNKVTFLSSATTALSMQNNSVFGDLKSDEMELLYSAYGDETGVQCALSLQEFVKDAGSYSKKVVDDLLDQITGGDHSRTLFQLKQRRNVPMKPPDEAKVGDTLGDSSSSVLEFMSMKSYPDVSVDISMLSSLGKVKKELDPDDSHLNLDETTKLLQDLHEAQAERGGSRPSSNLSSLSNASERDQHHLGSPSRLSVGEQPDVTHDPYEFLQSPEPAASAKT
Protocol: Selected compounds were tested in a BRD9 degradation assay using the HiBit Method.
Dulbecco's modified Eagle medium (DMEM) without phenol red and fetal bovine serum (FBS) were purchased from Gibco (Grand Island, NY, USA). Nano-Glo® HiBiT Lytic Assay System was purchased from Promega (Madison, WI, USA). 293T.166 (BRD9-HiBiT) cell line, endogenously expressing BRD9 with HiBiT fusion tag via CRISPR and ectopically expressing LgBiT tag, was purchased from Promega (Madison, WI, USA). 293T.167 (BRD7-HiBiT) cell line, endogenously expressing BRD7 with HiBiT fusion tag via CRISPR and ectopically expressing LgBiT tag, was purchased from Promega (Madison, WI, USA). 293T.92 (BRD4-HiBiT) cell line, endogenously expressing BRD4 with HiBiT fusion tag via CRISPR and ectopically expressing LgBiT tag, was generated in-house. Cell culture flasks and 384-well microplates were acquired from VWR (Radnor, PA, USA).
BRD9 degradation was determined based on quantification of luminescent signal using Nano-Glo® HiBiT Lytic Assay kit. Test compounds were added to the 384-well plate from a top concentration of 10 μM with 11 points, half log titration in duplicates. 293T.166 cells were added into 384-well plates at a cell density of 10,000 cells per well. The plates were kept at 37° C. with 5% CO2 for 2 hours. BRD7 and BRD4 degradation was similarly determined with 293T.167 cells and 293T.92 cells, respectively. The cells treated in the absence of the test compound were the negative control and the cells without Nano-Glo® HiBiT Lytic reagent were the positive control. After 2-hour incubation, Nano-Glo® HiBiT Lytic Assay reagents were added to the cells. Luminescence was acquired on EnVision® Multilabel Reader (Catalog No. 2104-0010, Perkin Elmer Inc., Dumfries, VA, USA).
This assay evaluates the degradation of BRD9 induced by treatment with Compound 1 or Compound 2 as measured by luminescence using Nano-Glo® HiBiT Lytic Assay System in HEK293 cells CRISPR-edited to endogenously express HiBiT tagged BRD9 and exogenously express LgBiT protein.
Nano-Glo® HiBiT Lytic Assay System was purchased from Promega (Catalog No. N3050, Madison, WI, USA). BRD9-HiBiT HEK293 cells were purchased from Promega (Catalog No. CS302348, Madison, WI, USA). The cells were maintained in Dulbecco's modified Eagle medium (DMEM) without phenol red (Catalog No. 12430112, ThermoFisher Scientific, Waltham, MA, USA) supplemented with 10% fetal bovine serum (FBS) (Catalog No. 16000-044, Gibco, Grand Island, NY, USA) at 37° C. in an atmosphere of 5% CO2 in air. The HiBiT polypeptide tag was introduced into the C-terminus of the endogenous BRD9 locus by CRISPR-Cas9 and the LgBiT protein was introduced via Lentiviral infection to produce the modified HEK293T.166 cell line. The HiBiT polypeptide and LgBiT protein allow reconstitution of NanoBiT enzyme in the cells. The Nano-Glo® HiBiT Lytic Substrate was then added and activated by the NanoBiT enzyme following cell lysis to produce a luminescent signal that is directly proportional to the amount of HiBiT-tagged BRD9.
The HEK293T.166 cells were routinely sub-cultured to maintain cell density between 30-80% confluence, not to exceed 20 passages. Cells were washed with PBS pH 7.4 (Catalog No. 10010049, ThermoFisher Scientific, Waltham, MA, USA), trypsinized for 5 minutes at 37° C., and resuspended in fresh growth media without phenol red. An aliquot was diluted 2× with Trypan Blue solution 0.4% (Catalog No. 15250061, ThermoFisher Scientific, Waltham, MA, USA) and cell count determined. Cell concentration was adjusted with growth media without phenol red to 3.3×10^5 cells/mL.
Compound 1 or Compound 2 was prepared by dissolving neat compounds in DMSO (Catalog No. D8418, Sigma-Aldrich, Inc., St. Louis, MO, USA) to generate 10 mM stock solution and stored at −20° C. […]

[1] = Solubility study in aqueous media at 37° C.; settings: for Solubility: target 10 mg/5 mL, LOQ: 50 μg/mL
[2] = Hygroscopicity by DVS at 25° C.; format: physicochemical
Protocol: Hygroscopicity of Form A and Form N was investigated by DVS at 25° C. […] Form A converted to Form K after the DVS test. Form K is a metastable hydrate. It reverted back to Form A after exposure to ambient condition.
Hygroscopicity of the free base Pattern A* and the urea cocrystal Form P were evaluated by DVS at 25° C.

[3] = pH 4.5, 50 mM acetate buffer, 2 h
[4] = pH 4.5, 50 mM acetate buffer, 24 h

In the case of `COc1cc(-c2cn(C)c(=O)c(C)c2C)cc(OC)c1CN1CC[C@H](N2CCN(c3ccc(N[C@@H]4CCC(=O)NC4=O)cc3F)CC2)C(F)(F)C1` [Compound 2], the “% BRD9 Remaining Relative to Vehicle Control at 2 hr, Mean” value (BRD9; 0.010 nM) is reported as 103.0%, the “% BRD9 Remaining Relative to Vehicle Control at 2 hr, Mean” value (BRD9; 0.032 nM) is reported as 95.9% and the “% BRD9 Remaining Relative to Vehicle Control at 2 hr, Mean” value (BRD9; 0.100 nM) is reported as 105.0%. For the same compound, the “% BRD9 Remaining Relative to Vehicle Control at 2 hr, Mean” value (BRD9; 0.315 nM) was 103.3%, the “% BRD9 Remaining Relative to Vehicle Control at 2 hr, Mean” value (BRD9; 0.997 nM) was 105.4% and the “% BRD9 Remaining Relative to Vehicle Control at 2 hr, Mean” value (BRD9; 3.15 nM) was 100.2%. The “% BRD9 Remaining Relative to Vehicle Control at 2 hr, Mean” value (BRD9; 10.0 nM) was 87.1%, the “% BRD9 Remaining Relative to Vehicle Control at 2 hr, Mean” value (BRD9; 31.7 nM) was 75.4% and the “% BRD9 Remaining Relative to Vehicle Control at 2 hr, Mean” value (BRD9; 100 nM) was 49.0%. The “% BRD9 Remaining Relative to Vehicle Control at 2 hr, Mean” value (BRD9; 316 nM) was 33.1%, the “% BRD9 Remaining Relative to Vehicle Control at 2 hr, Mean” value (BRD9; 999 nM) was 39.0% and the DC50 (BRD9; 293T.166 cells) was less than 100 nM. For the same compound, the Emax (BRD9; BRD9-HiBiT, 293T.166 cells, 2 hours, read-out: Mean Emax (%) ± SD) was 33.1 ± 9.92% and the Dmax (BRD9; HEK293T.166 cells, 2-hour treatment, read-out: maximal degradation of BRD9) was roughly 70%.

For `COc1cc(-c2cn(C)c(=O)c(C)c2C)cc(OC)c1CN1CC[C@@H](N2CCN(c3ccc(N[C@H]4CCC(=O)NC4=O)cc3F)CC2)C(F)(F)C1` [Compound 3], the DC50 (BRD9; 293T.166 cells) was less than 100 nM.

For `COc1cc(-c2cn(C)c(=O)c(C)c2C)cc(OC)c1CN1CC[C@@H](N2CCN(c3ccc(N[C@@H]4CCC(=O)NC4=O)cc3F)CC2)C(F)(F)C1` [Compound 4], the DC50 (BRD9; 293T.166 cells) was less than 100 nM.

`COc1cc(-c2cn(C)c(=O)c(C)c2C)cc(OC)c1CN1CCC(N2CCN(c3ccc(NC4CCC(=O)NC4=O)cc3F)CC2)C(F)(F)C1` (stereo not shown) [Compound 5] gave a DC50 (BRD9; 293T.166 cells) of less than 100 nM.

In the case of `COc1cc(-c2cn(C)c(=O)c(C)c2C)cc(OC)c1CN1CC[C@H](N2CCN(c3ccc(N[C@H]4CCC(=O)NC4=O)cc3F)CC2)C(F)(F)C1.NC(N)=O` [Urea cocrystal Pattern P], the pH ([1]; FaSSIF-v1, pH 6.5, 2 h) is reported as “pH: 6.5”, the Solubility ([1]; FaSSIF-v1, pH 6.5, 2 h) is reported as “<LOQ” and the pH ([1]; FaSSIF-v1, pH 6.5, 24 h) is reported as “pH: 6.5”. For the same compound, the Solubility ([1]; FaSSIF-v1, pH 6.5, 24 h) was “<LOQ”, the pH ([1]; FeSSIF-v1, pH 5.0, 2 h) was “pH: 5.0” and the Solubility ([1]; FeSSIF-v1, pH 5.0, 2 h) was 280 µg/mL. For the same compound, the pH ([1]; FeSSIF-v1, pH 5.0, 24 h) was “pH: 4.9”, the Solubility ([1]; FeSSIF-v1, pH 5.0, 24 h) was 340 µg/mL and the pH ([1]; SGF, pH 1.8, 2 h) was “pH: 2.4”. The Solubility ([1]; SGF, pH 1.8, 2 h) was greater than 2000 µg/mL, the pH ([1]; SGF, pH 1.8, 24 h) was “pH: 2.4” and the Solubility ([1]; SGF, pH 1.8, 24 h) was greater than 2000 µg/mL. For the same compound, the pH ([1]; pH 1.0 (0.1N HCl), 2 h) was “pH: 1.0”, the Solubility ([1]; pH 1.0 (0.1N HCl), 2 h) was greater than 2000 µg/mL and the pH ([1]; pH 1.0 (0.1N HCl), 24 h) was “pH: 1.0”. The Solubility ([1]; pH 1.0 (0.1N HCl), 24 h) was greater than 2000 µg/mL, the pH [1, 3] was “pH: 4.6” and the Solubility [1, 3] was 240 µg/mL. The pH [1, 4] was “pH: 4.5”, the Solubility [1, 4] was 140 µg/mL and the “XRPD after DVS test” value [2] was “No form change”. For the same compound, the “water uptake from 40% RH to 90% RH” value ([2]; DVS) was <90% RH, 1.6% water, the “water uptake from 40% RH to 95% RH” value ([2]; DVS) was 3.1% water uptake from and the “1st desorp. (%)” value ([2]; DVS, 0% RH) was 0.0%. For the same compound, the “2nd sorp. (%)” value ([2]; DVS, 0% RH) was 0.0%, the “1st desorp. (%)” value ([2]; DVS, 10% RH) was 2.2% and the “2nd sorp. (%)” value ([2]; DVS, 10% RH) was 1.2%. For the same compound, the “1st desorp. (%)” value ([2]; DVS, 20% RH) was 3.1%, the “2nd sorp. (%)” value ([2]; DVS, 20% RH) was 2.8% and the “1st desorp. (%)” value ([2]; DVS, 30% RH) was 3.7%. For the same compound, the “2nd sorp. (%)” value ([2]; DVS, 30% RH) was 3.3%, the “1st desorp. (%)” value ([2]; DVS, 40% RH) was 4.2% and the “1st sorp. (%)” value ([2]; DVS, 40% RH) was 4.0%. For the same compound, the “2nd desorp. (%)” value ([2]; DVS, 40% RH) was 4.2%, the “2nd sorp. (%)” value ([2]; DVS, 40% RH) was 3.7% and the “1st desorp. (%)” value ([2]; DVS, 50% RH) was 4.5%. The “1st sorp. (%)” value ([2]; DVS, 50% RH) was 4.2%, the “2nd desorp. (%)” value ([2]; DVS, 50% RH) was 4.5% and the “2nd sorp. (%)” value ([2]; DVS, 50% RH) was 4.1%. For the same compound, the “1st desorp. (%)” value ([2]; DVS, 60% RH) was 4.7%, the “1st sorp. (%)” value ([2]; DVS, 60% RH) was 4.4% and the “2nd desorp. (%)” value ([2]; DVS, 60% RH) was 4.7%. The “2nd sorp. (%)” value ([2]; DVS, 60% RH) was 4.4%, the “1st desorp. (%)” value ([2]; DVS, 70% RH) was 5.0% and the “1st sorp. (%)” value ([2]; DVS, 70% RH) was 4.7%. For the same compound, the “2nd desorp. (%)” value ([2]; DVS, 70% RH) was 5.0%, the “2nd sorp. (%)” value ([2]; DVS, 70% RH) was 4.8% and the “1st desorp. (%)” value ([2]; DVS, 80% RH) was 5.2%. For the same compound, the “1st sorp. (%)” value ([2]; DVS, 80% RH) was 5.1%, the “2nd desorp. (%)” value ([2]; DVS, 80% RH) was 5.3% and the “2nd sorp. (%)” value ([2]; DVS, 80% RH) was 5.1%. The “1st desorp. (%)” value ([2]; DVS, 90% RH) was 5.8%, the “1st sorp. (%)” value ([2]; DVS, 90% RH) was 5.6% and the “2nd desorp. (%)” value ([2]; DVS, 90% RH) was 5.8%. For the same compound, the “2nd sorp. (%)” value ([2]; DVS, 90% RH) was 5.6%, the “1st desorp. (%)” value ([2]; DVS, 95% RH) was 7.1% and the “1st sorp. (%)” value ([2]; DVS, 95% RH) was 7.1%. The “2nd desorp. (%)” value ([2]; DVS, 95% RH) was 7.3% and the “2nd sorp. (%)” value ([2]; DVS, 95% RH) was 7.3%.
